From US9637485B2, “6,7-dihydrobenzo[a]quinolizin-2-one derivatives for the treatment and prophylaxis of hepatitis B virus infection” (Hoffmann-La Roche Inc., priority 2014, dated 2017)
Where two headings read alike, the source gives them in different places.

Test system: HBsAg
Test: HBsAg assay (CLIA of secreted HBsAg in HepG2.2.15 culture supernatant)
Format: cell-based, HBV
Procedure: HepG2.2.15 cells (Acs et al. Proc Natl Acad Sci USA, 84, (1987), 4641-4), a constitutively HBV-expressing cell line were cultured in DMEM+Glutamax-I medium (Invitrogen, Carlsbad, Calif., USA, Catalog number: 11320082), supplemented with 10% fetal bovine serum (Invitrogen, Catalog number: 10099141) and G418 (Invitrogen, Catalog number: 10131027) at a final concentration of 200 mg/L and maintained in 5% CO2 at 37° C.
HepG2.2.15 cells were seeded in duplicate into white, 96-well plates at 1.5×10^4 cells/well. The cells were treated with a three-fold serial dilution series of the compounds in DMSO. The final DMSO concentration in all wells was 1% and DMSO was used as no drug control.
The HBsAg chemiluminescence immunoassay (CLIA) kit (Autobio Diagnostics Co., Zhengzhou, China, Catalog number: CL0310-2) was used to measure the levels of secreted HBV antigens semi-quantitatively. For the detection 50 μL/well culture supernatant was used and HBsAg was quantified using HBsAg chemiluminescence immunoassay (CLIA) kit (Autobio Diagnostics Co., Zhengzhou, China, Catalog number: CL0310-2), 50 μl of the supernatant was transferred to the CLIA assay plate and 50 μL of enzyme conjugate reagent was added into each well. The plates were sealed and gently agitated for 1 hour at room temperature. The supernatant-enzyme-mixture was discarded and wells were washed 6 times with 300 μL of PBS. The residual liquid was removed by plating the CLIA plate right side down on absorbent tissue paper. 25 μL of substrates A and B were added to each well. Luminance was measured using a luminometer (Mithras LB 940 Multimode Microplate Reader) after 10 minutes incubation. Dose-response curves were generated and the IC50 value was extrapolated by using the E-WorkBook Suite (ID Business Solutions Ltd., Guildford, UK). The IC50 was defined as the compound concentration (or conditioned media log dilution) at which HBsAg secretion was reduced by 50% compared to the no drug control.

[1] = Hepatitis B virus, HepG2.2.15, read-out: IC50 (HBsAg secretion reduced by 50% compared to the no drug control), HepG2.2.15 cells, culture supernatant, HBsAg CLIA
[2] = read-out: IC50 (HBsAg secretion reduced by 50% compared to the no drug control), HepG2.2.15 cells, culture supernatant, HBsAg CLIA

Row | SMILES | IC50 [1] [nM] | IC50 [2] [nM]
1 | COCCCOc1cc2c(cc1OC)-c1cc(=O)c(C(=O)O)cn1C(C(C)(C)CO)C2 (racemic) [Example 24, 6-(2-Hydroxy-1,1-dimethyl-ethyl)-10-methoxy-9-(3-methoxypropoxy)-2-oxo-6,7-dihydrobenzo[a]quinolizine-3-carboxylic acid] | 5 | –
2 | COCCCOc1cc2c(cc1OC)-c1cc(=O)c(C(=O)O)cn1C(C(C)(C)COC)C2 (racemic) [Example 27, 10-Methoxy-6-(2-methoxy-1,1-dimethyl-ethyl)-9-(3-methoxypropoxy)-2-oxo-6,7-dihydrobenzo[a]quinolizine-3-carboxylic acid] | 5 | –
3 | COCCCOc1cc2c(cc1Cl)-c1cc(=O)c(C(=O)O)cn1C(C(C)(C)COC)C2 (racemic) [Example 30, 10-Chloro-6-(2-methoxy-1,1-dimethyl-ethyl)-9-(3-methoxypropoxy)-2-oxo-6,7-dihydrobenzo[a]quinolizine-3-carboxylic acid] | 4 | –
4 | COCCCOc1cc2c(cc1OC)-c1cc(=O)c(C(=O)O)cn1[C@H](C(C)(C)O)C2 (single isomer, unassigned) [Example 21, (+)-6-(1-Hydroxy-1-methyl-ethyl)-10-methoxy-9-(3-methoxypropoxy)-2-oxo-6,7-dihydrobenzo[a]quinolizine-3-carboxylic acid] | – | 41
5 | COCCCOc1cc2c(cc1OC)-c1cc(=O)c(C(=O)O)cn1C(C(C)(C)O)C2 (single isomer, unassigned) [Example 22, (−)-6-(1-hydroxy-1-methyl-ethyl)-10-methoxy-9-(3-methoxypropoxy)-2-oxo-6,7-dihydrobenzo[a]quinolizine-3-carboxylic acid] | – | 4020
6 | COCCCOc1cc2c(cc1OC)-c1cc(=O)c(C(=O)O)cn1C(C(C)(C)CO)C2 (single isomer, unassigned) [Example 26, (−)-6-(2-hydroxy-1,1-dimethyl-ethyl)-10-methoxy-9-(3-methoxypropoxy)-2-oxo-6,7-dihydrobenzo[a]quinolizine-3-carboxylic acid] | – | 84
7 | COCCCOc1cc2c(cc1OC)-c1cc(=O)c(C(=O)O)cn1[C@H](C(C)(C)COC)C2 (single isomer, unassigned) [Example 29, (−)-10-methoxy-6-(2-methoxy-1,1-dimethyl-ethyl)-9-(3-methoxypropoxy)-2-oxo-6,7-dihydrobenzo[a]quinolizine-3-carboxylic acid] | – | 396
8 | COCCCOc1cc2c(cc1Cl)-c1cc(=O)c(C(=O)O)cn1C(C(C)(C)COC)C2 (single isomer, unassigned) [Example 31, (+)-10-Chloro-6-(2-methoxy-1,1-dimethyl-ethyl)-9-(3-methoxypropoxy)-2-oxo-6,7-dihydrobenzo[a]quinolizine-3-carboxylic acid] | – | 3
9 | COCCCOc1cc2c(cc1Cl)-c1cc(=O)c(C(=O)O)cn1C(C(C)(C)COC)C2 (single isomer, unassigned) [Example 32, (−)-10-chloro-6-(2-methoxy-1,1-dimethyl-ethyl)-9-(3-methoxypropoxy)-2-oxo-6,7-dihydrobenzo[a]quinolizine-3-carboxylic acid] | – | 8270
10 | COCC(C)(C)C1Cc2cc(OCc3ccccc3)c(OC)cc2-c2cc(=O)c(C(=O)O)cn21 (centres unmarked) [Example 1, 9-Benzyloxy-10-methoxy-6-(2-methoxy-1,1-dimethyl-ethyl)-2-oxo-6,7-dihydrobenzo[a]quinolizine-3-carboxylic acid] | 7 | –
11 | COCC(C)(C)C1Cc2cc(OC)c(OC)cc2-c2cc(=O)c(C(=O)O)cn21 (centres unmarked) [Example 2, 9,10-Dimethoxy-6-(2-methoxy-1,1-dimethyl-ethyl)-2-oxo-6,7-dihydrobenzo[a]quinolizine-3-carboxylic acid] | 34 | –
12 | COCC(C)(C)C1Cc2cc(OCC(F)(F)F)c(OC)cc2-c2cc(=O)c(C(=O)O)cn21 (centres unmarked) [Example 3, 10-Methoxy-6-(2-methoxy-1,1-dimethyl-ethyl)-2-oxo-9-(2,2,2-trifluoroethoxy)-6,7-dihydrobenzo[a]quinolizine-3-carboxylic acid] | 9 | –
13 | COCC(C)(C)C1Cc2cc(OCCCN3CCOCC3)c(OC)cc2-c2cc(=O)c(C(=O)O)cn21 (centres unmarked) [Example 4, 10-Methoxy-6-(2-methoxy-1,1-dimethyl-ethyl)-9-(3-morpholinopropoxy)-2-oxo-6,7-dihydrobenzo[a]quinolizine-3-carboxylic acid] | 14 | –
14 | COCC(C)(C)C1Cc2cc(OCCCCCCO)c(OC)cc2-c2cc(=O)c(C(=O)O)cn21 (centres unmarked) [Example 5, 9-(6-Hydroxyhexoxy)-10-methoxy-6-(2-methoxy-1,1-dimethyl-ethyl)-2-oxo-6,7-dihydrobenzo[a]quinolizine-3-carboxylic acid] | 6 | –
15 | COCC(C)(C)C1Cc2cc(OCCCO)c(OC)cc2-c2cc(=O)c(C(=O)O)cn21 (centres unmarked) [Example 6, 9-(3-Hydroxypropoxy)-10-methoxy-6-(2-methoxy-1,1-dimethyl-ethyl)-2-oxo-6,7-dihydrobenzo[a]quinolizine-3-carboxylic acid] | 22 | –
16 | COCC(C)(C)C1Cc2cc(OCC(C)(C)CO)c(OC)cc2-c2cc(=O)c(C(=O)O)cn21 (centres unmarked) [Example 7, 9-(3-Hydroxy-2,2-dimethyl-propoxy)-10-methoxy-6-(2-methoxy-1,1-dimethyl-ethyl)-2-oxo-6,7-dihydrobenzo[a]quinolizine-3-carboxylic acid] | 9 | –
17 | CCOCCOc1cc2c(cc1OC)-c1cc(=O)c(C(=O)O)cn1C(C(C)(C)COC)C2 (centres unmarked) [Example 8, 9-(2-Ethoxyethoxy)-10-methoxy-6-(2-methoxy-1,1-dimethyl-ethyl)-2-oxo-6,7-dihydrobenzo[a]quinolizine-3-carboxylic acid] | 12 | –
18 | COCC(C)(C)C1Cc2cc(OCC3CC3)c(OC)cc2-c2cc(=O)c(C(=O)O)cn21 (centres unmarked) [Example 9, 9-(Cyclopropylmethoxy)-10-methoxy-6-(2-methoxy-1,1-dimethyl-ethyl)-2-oxo-6,7-dihydrobenzo[a]quinolizine-3-carboxylic acid] | 4 | –
19 | COCC(C)(C)C1Cc2cc(OCCCSC)c(OC)cc2-c2cc(=O)c(C(=O)O)cn21 (centres unmarked) [Example 10, 10-Methoxy-6-(2-methoxy-1,1-dimethyl-ethyl)-9-(3-methylsulfanylpropoxy)-2-oxo-6,7-dihydrobenzo[a]quinolizine-3-carboxylic acid] | 6 | –
20 | COCC(C)(C)C1Cc2cc(OCCCN3CCCC3)c(OC)cc2-c2cc(=O)c(C(=O)O)cn21 (centres unmarked) [Example 11, 10-Methoxy-6-(2-methoxy-1,1-dimethyl-ethyl)-2-oxo-9-(3-pyrrolidin-1-ylpropoxy)-6,7-dihydrobenzo[a]quinolizine-3-carboxylic acid] | 519 | –
21 | COCC(C)(C)C1Cc2cc(OCCCN3CCCC3=O)c(OC)cc2-c2cc(=O)c(C(=O)O)cn21 (centres unmarked) [Example 12, 10-Methoxy-6-(2-methoxy-1,1-dimethyl-ethyl)-2-oxo-9-[3-(2-oxopyrrolidin-1-yl)propoxy]-6,7-dihydrobenzo[a]quinolizine-3-carboxylic acid] | 190 | –
22 | COCC(C)(C)C1Cc2cc(OCCCN(C)C)c(OC)cc2-c2cc(=O)c(C(=O)O)cn21 (centres unmarked) [Example 13, 9-[3-(Dimethylamino)propoxy]-10-methoxy-6-(2-methoxy-1,1-dimethyl-ethyl)-2-oxo-6,7-dihydrobenzo[a]quinolizine-3-carboxylic acid] | 579 | –
23 | COCC(C)(C)C1Cc2cc(OCCCCCCNC(=O)OC(C)(C)C)c(OC)cc2-c2cc(=O)c(C(=O)O)cn21 (centres unmarked) [Example 14, 9-[6-(tert-Butoxycarbonylamino)hexoxy]-10-methoxy-6-(2-methoxy-1,1-dimethyl-ethyl)-2-oxo-6,7-dihydrobenzo[a]quinolizine-3-carboxylic acid] | 3 | –
24 | COCC(C)(C)C1Cc2cc(OCCCS(C)(=O)=O)c(OC)cc2-c2cc(=O)c(C(=O)O)cn21 (centres unmarked) [Example 15, 10-Methoxy-6-(2-methoxy-1,1-dimethyl-ethyl)-9-(3-methylsulfonylpropoxy)-2-oxo-6,7-dihydrobenzo[a]quinolizine-3-carboxylic acid] | 124 | –
25 | COCC(C)(C)C1Cc2cc(OCCCCCCN)c(OC)cc2-c2cc(=O)c(C(=O)O)cn21 (centres unmarked) [Example 16, 9-(6-Aminohexoxy)-10-methoxy-6-(2-methoxy-1,1-dimethyl-ethyl)-2-oxo-6,7-dihydrobenzo[a]quinolizine-3-carboxylic acid] | 68 | –
26 | COCC(C)(C)C1Cc2cc(OCCC3CCCN3C)c(OC)cc2-c2cc(=O)c(C(=O)O)cn21 (centres unmarked) [Example 17, 10-Methoxy-6-(2-methoxy-1,1-dimethyl-ethyl)-9-[2-(1-methylpyrrolidin-2-yl)ethoxy]-2-oxo-6,7-dihydrobenzo[a]quinolizine-3-carboxylic acid] | 537 | –
